Values quoted from earlier work, collected in patent US6703001B1, “Cosmetic and dermatological light-protective formulations containing triazine derivatives one or several esters of branched-chain carboxylic acids and branched-chain alcohols” (Beiersdorf AG, priority 1998, dated 2004).

CCCCC(CC)COC(=O)c1ccc(Nc2nc(Nc3ccc(C(=O)OCC(CC)CCCC)cc3)nc(Nc3ccc(C(=O)OCC(CC)CCCC)cc3)n2)cc1 (stereo not drawn) [UVINUL7 T 150, tris(2-ethylhexyl) 4,4′,4″-(1,3,5-triazine-2,4,6-triyltriimino)trisbenzoate]
corresponding dissolved, and therefore active, UV filter substance (corresponds to the about 15% by weight solubility in known solvents): 1-1.5 % by weight | maximum amount of the filter that known solvents can dissolve (known solvents for this UVB filter (lipids)): about 15 % by weight | solubility in lipids (in words) (lipids): poor solubility in lipids
